Where “and” joins values, the source holds several entries; their conditions need not be identical. Identical values can stand only once.
Key:
[1] = Histological analysis of liver and adipose tissue; type: in vivo, mouse; settings: DIO and db/db mice, 20 mg/kg, 5 weeks
Description: Fig. 5 APC improves hyperlipidemia of obese mice. DIO mice were continuously i.p. injected with control vehicle or APC with indicated doses (APC, 0, 10, and 20 mg/kg) or vehicle (Ctrl) one time daily for 5 weeks (n = 5–9). a Body-weight curves of these mice (left). Area under curve (AUC) analysis of curves is shown as a scatter chart at the right. […] Data are represented as mean ± SEM. *P < 0.05; **P < 0.01; P values were determined by one-way ANOVA followed Dunnett’s multiple comparisons test. The triglyceride (TG) contents in the serum (c) and liver (d) of these mice. The contents of (e) total cholesterol (TC), LDL cholesterol (LDL-C), and HDL cholesterol (HDL-C), (f) VLDL-C, and (g) nonesterified fatty acid (NEFA) in the serum of these mice. h The contents of hepatic NEFA and (i) glycerol in these mice, which were normalized by hepatic protein levels as determined by BCA assay. Data are represented as mean ± SEM (n = 5–6). *P < 0.05; **P < 0.01; P values were determined by one-way ANOVA followed Dunnett’s multiple comparisons test. j Histological analysis of liver and epididymis fat (WAT) from DIO mice treated with APC (20 mg/kg) or vehicle for 5 weeks. Tissues were stained with hematoxylin and eosin. Scale bars represent 100 μm. […]

[2] = Glucose, insulin, and pyruvate tolerance tests; type: in vivo, mouse; design: AUC of IGTT, Total Area / AUC analysis of ITT, Total Area / AUC of ITT, group mean / AUC of PTT, group mean / IGTT, Mean Diff. APC - VEH / IGTT, group mean (Mean 1, APC): unit not given beside the values; settings: for blood glucose, PTT in DIO, group mean / blood glucose, IGTT, mean / ITT, group mean: N=7; for blood glucose: OGTT in db/db; for IGTT, group mean (Mean 1, APC): n=8
Description: After overnight fasting, mice were i.p. injected or treated orally with D-glucose (1–2 g/kg) for glucose-tolerance tests (IGTT or OGTT) or injecting with sodium pyruvate (1–2 g/kg) for pyruvate tolerance tests (PTT). Insulin-tolerance tests (ITT) were performed by i.p. injection of insulin (1 U/kg) 2-h after food removal. […]

[3] = DIO and db/db mice, i.p. 20 mg/kg, 5 weeks

In the case of CC(C)=CCc1cc(C=CC(=O)O)cc(CC=C(C)C)c1O [APC, 3,5-diprenyl-4-hydroxycinnamic acid], the “sizes of lipid droplets in liver and adipose tissues” value [1] is reported as “remarkably reduced”, the “capability for gluconeogenesis (PTT)” value [2, 3] is reported as “significantly inhibited” and the “whole-body insulin sensitivity (GTT and ITT)” value [2, 3] is reported as “greatly enhanced”. The “blood glucose, PTT in DIO, group mean” value ([2]; DIO mice, 0 mins of PTT, mean of APC group) was 98.23 mg/dL, the “blood glucose, PTT in DIO” value ([2]; DIO mice, 0 mins of PTT, single animals, n=7) was 79.2 mg/dL and 84.6 mg/dL and 104.4 mg/dL and 95.4 mg/dL and 124.2 mg/dL and 122.4 mg/dL and 77.4 mg/dL and the “blood glucose, PTT in DIO, group mean” value ([2]; DIO mice, 15 mins of PTT, mean of APC group) was 148.9 mg/dL. The “blood glucose, PTT in DIO” value ([2]; DIO mice, 15 mins of PTT, single animals, n=7) was 135 mg/dl and 153 mg/dl and 190.8 mg/dl and 156.6 mg/dl (2×) and 127.8 mg/dl and 122.4 mg/dl, the “blood glucose, PTT in DIO, group mean” value ([2]; DIO mice, 30 mins of PTT, mean of APC group) was 191.6 mg/dL and the “blood glucose, PTT in DIO” value ([2]; DIO mice, 30 mins of PTT, single animals, n=7) was 160.2 mg/dL and 192.6 mg/dL and 210.6 mg/dL and 185.4 mg/dL and 230.4 mg/dL and 187.2 mg/dL and 174.6 mg/dL. For the same compound, the “blood glucose, PTT in DIO, group mean” value ([2]; DIO mice, 60 mins of PTT, mean of APC group) was 174.9 mg/dL, the “blood glucose, PTT in DIO” value ([2]; DIO mice, 60 mins of PTT, single animals, n=7) was 129.6 mg/dL and 163.8 mg/dL and 210.6 mg/dL and 156.6 mg/dL and 248.4 mg/dL and 176.4 mg/dL and 138.6 mg/dL and the “blood glucose, PTT in DIO, group mean” value ([2]; DIO mice, 120 mins of PTT, mean of APC group) was 133.2 mg/dL. For the same compound, the “blood glucose, PTT in DIO” value ([2]; DIO mice, 120 mins of PTT, single animals, n=7) was 93.6 mg/dl and 126 mg/dl (2×) and 165.6 mg/dl and 178.2 mg/dl and 120.6 mg/dl and 122.4 mg/dl, the “blood glucose, PTT in DIO, mean over all time points” value ([2]; DIO mice, Mean of APC, two-way RM ANOVA) was 149.3 mg/dL and the “AUC of PTT, group mean” value ([2]; DIO mice, mean of APC group, n=7) was 631. The “Total Area of PTT (AUC analysis of PTT)” value ([2]; DIO mice, single animals, n=7) was 511.2 and 614.7 and 747 and 609.3 and 757.8 and 641.7 and 535.5, the “blood glucose, IGTT, mean” value ([2]; Figure 8f, IGTT in DIO, 0 mins, group mean, VEH 112.9) was 93.09 mg/dL and the “blood glucose, IGTT” value ([2]; Figure 8f, IGTT in DIO, 0 mins, individual mice) was 109.80 mg/dl (2×) and 84.60 mg/dl (2×) and 72.00 mg/dl and 97.20 mg/dl and 93.60 mg/dl. The “blood glucose, IGTT, mean” value ([2]; Figure 8f, IGTT in DIO, 15 mins, group mean, VEH 362.1) was 364.4 mg/dL, the “blood glucose, IGTT” value ([2]; Figure 8f, IGTT in DIO, 15 mins, individual mice) was 243.00 mg/dL and 401.40 mg/dL and 361.80 mg/dL and 469.80 mg/dL and 279.00 mg/dL and 376.20 mg/dL and 419.40 mg/dL and the “blood glucose, IGTT, mean” value ([2]; Figure 8f, IGTT in DIO, 30 mins, group mean, VEH 448.5) was 358.7 mg/dL. For the same compound, the “blood glucose, IGTT” value ([2]; Figure 8f, IGTT in DIO, 30 mins, individual mice) was 198.00 mg/dL and 376.20 mg/dL and 453.60 mg/dL and 383.40 mg/dL and 358.20 mg/dL and 468.00 mg/dL and 273.60 mg/dL, the “blood glucose, IGTT, mean” value ([2]; Figure 8f, IGTT in DIO, 60 mins, group mean, VEH 351.8) was 257.9 mg/dL and the “blood glucose, IGTT” value ([2]; Figure 8f, IGTT in DIO, 60 mins, individual mice) was 171.00 mg/dL and 248.40 mg/dL and 298.80 mg/dL and 241.20 mg/dL and 307.80 mg/dL and 372.60 mg/dL and 165.60 mg/dL. For the same compound, the “blood glucose, IGTT, mean” value ([2]; Figure 8f, IGTT in DIO, 100 mins, group mean, VEH 222.7) was 157.1 mg/dL, the “blood glucose, IGTT” value ([2]; Figure 8f, IGTT in DIO, 100 mins, individual mice) was 140.40 mg/dL and 131.40 mg/dL and 176.40 mg/dL and 138.60 mg/dL and 207.00 mg/dL and 190.80 mg/dL and 115.20 mg/dL and the “AUC of IGTT, Total Area” value ([2]; Figure 8f, IGTT in DIO, individual mice) was 737.1 and 1134 and 1257 and 1200 and 1097 and 1359 and 958.5. The “blood glucose, ITT” value ([2]; Figure 8g, ITT in DIO, 0 mins, individual mice) was 163.8 mg/dl (2×) and 151.2 mg/dl and 124.2 mg/dl and 156.6 mg/dl (2×) and 160.2 mg/dl, the “blood glucose, ITT” value ([2]; Figure 8g, ITT in DIO, 15 mins, individual mice) was 91.8 mg/dL and 75.6 mg/dL and 79.2 mg/dL and 93.6 mg/dL and 97.2 mg/dL and 77.4 mg/dL and 108 mg/dL and the “blood glucose, ITT” value ([2]; Figure 8g, ITT in DIO, 30 mins, individual mice) was 88.2 mg/dl (2×) and 73.8 mg/dl and 93.6 mg/dl and 82.8 mg/dl and 68.4 mg/dl and 86.4 mg/dl. For the same compound, the “blood glucose, ITT” value ([2]; Figure 8g, ITT in DIO, 60 mins, individual mice) was 75.6 mg/dL and 88.2 mg/dL and 79.2 mg/dL and 93.6 mg/dL and 81 mg/dL and 61.2 mg/dL and 52.2 mg/dL, the “blood glucose, ITT” value ([2]; Figure 8g, ITT in DIO, 100 mins, individual mice) was 86.4 mg/dl (2×) and 124.2 mg/dl and 75.6 mg/dl and 88.2 mg/dl (2×) and 50.4 mg/dl and the “AUC analysis of ITT, Total Area” value ([2]; Figure 8g, ITT in DIO, individual mice) was 380.7 and 389.7 and 337.5 and 396.9 and 383.4 and 333 and 351.9. For the same compound, the “blood glucose” value ([2]; Figure 9g, Time 0.0 mins, single animals) was 320.4 mg/dL and 340.2 mg/dL and 352.8 mg/dL and 234.0 mg/dL and 396.0 mg/dL, the “blood glucose” value ([2]; Figure 9g, Time 30.0 mins, single animals) was 345.6 mg/dL and 576.0 mg/dL and 259.2 mg/dL and 268.2 mg/dL and 599.4 mg/dL and the “blood glucose” value ([2]; Figure 9g, Time 60.0 mins, single animals) was 334.8 mg/dL and 468.0 mg/dL and 158.4 mg/dL and 194.4 mg/dL and 502.2 mg/dL. The “blood glucose” value ([2]; Figure 9g, Time 90.0 mins, single animals) was 268.2 mg/dL and 486.0 mg/dL and 162.0 mg/dL and 203.4 mg/dL and 419.4 mg/dL, the “AUC of OGTT, mean” value ([2]; Figure 9g, db/db, group mean, n 5) was 1059 and the “AUC of OGTT” value ([2]; Figure 9g, db/db, single animals) was 974.7 and 1457 and 675 and 681.3 and 1509. For the same compound, the “OGTT in db/db, column mean of blood glucose” value ([2]; Figure 9g, mean over all time points and animals, N 20) was 344.4 mg/dL, the “ITT, group mean” value ([2]; 0 min, mean of APC group) was 153.8 and the “ITT, group mean” value ([2]; 15 min, mean of APC group) was 88.97. The “ITT, group mean” value ([2]; 30 min, mean of APC group) was 83.06, the “ITT, group mean” value ([2]; 60 min, mean of APC group) was 75.86 and the “ITT, group mean” value ([2]; 100 min, mean of APC group) was 85.63. The “AUC of IGTT in db/db, difference between means (APC - VEH) ± SEM” value ([2]; db/db mice) was -383.6 ± 97.97, the “IGTT, Mean Diff. APC - VEH” value ([2]; db/db mice, 0 min) was -33.3 and the “IGTT, group mean (Mean 1, APC)” value ([2]; db/db mice, 0 min) was 142. For the same compound, the “IGTT, Mean Diff. APC - VEH” value ([2]; db/db mice, 15 min) was -2.925, the “IGTT, group mean (Mean 1, APC)” value ([2]; db/db mice, 15 min) was 441.9 and the “IGTT, Mean Diff. APC - VEH” value ([2]; db/db mice, 30 min) was -145.1.
